Measured values as given in patent US20110183891A1 (priority 2009, published 2011).
“Also recorded” adds a separate entry of the source. Positions of bridges follow the written chain, without caps; N, C: chain ends. Non-standard residues stand in square brackets, D forms with d. Residues, ends and D or L forms follow the SMILES beside them. hArg = N=C(N)NCCCC[C@H](N)C(=O)O; Mpa = O=C(O)CCS

Tests used:
[1] = cited from earlier work
[2] = tested on: SAP 6 binding to A549 cells; experiment: Inhibition of labeled SAP 6 binding to human lung carcinoma A549 cells (FACS); type: cell-based; settings: for ratio of positive cells in R4: 400 μM inhibitor + labeled SAP 6, cells + labeled SAP 6 alone 3.23%, cells only 0.69%; for inhibition of SAP 6 binding to A549 cells: 10° C. for 30 min, FACS
Method: RGDS peptide or Integrilin® inhibition assay and cell viability assay. Grew human lung carcinoma A 549 cell and harvested the cells with 46×10^4 per ml. Changed the medium from complete growth medium into D-MEM/F-12 without phenol red; and transferred the aliquot volume of 0.2 ml cells into 1.5 ml sterile tubes. Added 50 μl of 2.4 mM RGDS peptide and Integrilin® into sample III and sample IV respectively, incubated all samples at 37° C. for 10 min. Then, added […] labeled Fluoro®-488 SAP 6 into Sample II, Sample III and Sample IV (Sample I is negative control, added 100 μl medium inside). Incubated the four mixtures at 10° C. for 30 min, and then centrifuged the cell cultures at 400 g at 10° C. for 5 min to remove the suspension. Washed the cells 1-2 times with 1 ml D-MEM/F-12 medium without phenol red to remove the unbound compounds. Sort the negative (non-labeling SAP 6) and positive (binding labeled SAP 6) cells by fluorescence-activated cell-sorting (FACS). […] It is often considered as a negative control.

[3] = tested on: SAP 6 binding to human platelets; settings: for inhibition of SAP 6 binding to human platelets: ADP-activated platelets, Alexa Fluor 488 SAP 6
Method: Cells were incubated with labeled enzyme together with ADP and inhibitors respectively at 40° C., then pellets were resuspended in 100 ml Hepes-Tyrode buffer, and fluorescence measured by TECAN (Ex./Em.=488 nm/519 nm). […] T test (mean with SEM), n=3, *P<0.05, **P<0.001.
Recombinnat C. albicans SAP 6 was labeled with Alexa Fluor® 488 based on the Invitrogen Alexa Fluor® 488 protein labeling kit manual. […] To obtain the pure platelets, it needs to be further isolated as follows: (1) carefully transfer 10 ml platelets (including rich plasma) to a 15 ml tube and add 1/10 volume of ACD anticoagulant (6.25 g sodium citrate.2H2O, 3.1 g citric acid anhidrous, 3.4 g D-glucose in 250 ml H2O); (2) pellet platelets by centrifuged at 3000 rpm for 5 minutes at room temperature (note: after centrifugation, supernatant still contains significant amount of platelets and it can be collected for experiments); (3) resuspend the pellet in ˜1 ml Hepes-Tyrode buffer pH=7.4 (134 mM sodium chloride, 12 mM sodium bicarbonate, 2.9 mM potassium chloride, 0.34 mM sodium phosphate monobasic, 5 mM Hepes, 5 mM glucose, 1% BSA). When the human platelets were ready, they were incubated labeled SAP 6 with relative amount of platelets at 4° C., room temperature and 37° C. for 2 h, 1 h and 30 min respectively. The mixtures were washed by Hepes-Tyrode buffer two times at 1500 rpm for 8 min. Resuspended the pellets in Hepes-Tyrode buffer and mounted on glass slides. The glass slides were imaged by the epifluorescence microscope for simultaneous detection of Platelet/SAP 6-AlexaFluor-488 fluorescence (FIGS. 3A-B).
Purified recombination C. albicans SAP 6 was labeled by the Alexa Fluor° 488 Protein Labeling Kit from Invitrogen. […] Fifty μl purified human platelets were added into the total 100 μl reaction mixture. A gradient of ADP concentrations (0.25 μM, 0.5 μM and 1 μM) was designed to test if ADP can activate platelets during the binding assay (FIG. 4A).

A549 cells = experiment: Morphology assay, rescue of apoptosis of A549 cells induced by SAP 6; type: cell-based, human; settings: bright-field images after two weeks incubation, data not shown
[4] = target: integrin of A549 cells (human lung carcinoma cells)

For `Clc1ccccc1C(c1ccccc1)(c1ccccc1)n1ccnc1` [Clotrimazole], the “absorption after application to the skin” value ([1]; in vivo) is listed as “less than 0.5%” and the “absorption from the vagina” value ([1]; in vivo) is listed as 3-10%.

In the case of `Clc1ccc(COC(Cn2ccnc2)c2ccc(Cl)cc2Cl)cc1` (stereo not shown) [Econazole], the “absorbed into the blood” value ([1]; in vivo) is listed as “Less than 1%”.

For `OC(Cn1cncn1)(Cn1cncn1)c1ccc(F)cc1F` [Fluconazole], the “absorption from the GI tract” value ([1]; in vivo, po) is listed as “almost completely absorbed”.

With `N=C(N)NCCCC[C@@H]1NC(=O)CCSSC[C@@H](C(N)=O)NC(=O)[C@@H]2CCCN2C(=O)[C@H](Cc2c[nH]c3ccccc23)NC(=O)[C@H](CC(=O)O)NC(=O)CNC1=O` [Integrilin®] ([Mpa][hArg]GDWPC-NH2; disulfide 1-7) the “ratio of positive cells in R4” value [2] was 2.42%, the “inhibition of SAP 6 binding to A549 cells” value (“inhibition … to A549 cells” for short) [2] was “can inhibit; also recorded: significantly inhibit” and the “inhibition of SAP 6 binding to human platelets” value [3] was “dose-dependent inhibition”.

In the case of `CCC(C)n1ncn(-c2ccc(N3CCN(c4ccc(OCC5COC(Cn6cncn6)(c6ccc(Cl)cc6Cl)O5)cc4)CC3)cc2)c1=O` (stereo not shown) [Itraconazole], the “absorption in the fasting state relative to drug taken with food” value ([1]; in vivo, po) is listed as 30%.

In the case of `CC(=O)N1CCN(c2ccc(OCC3COC(Cn4ccnc4)(c4ccc(Cl)cc4Cl)O3)cc2)CC1` (stereo not shown) [Ketoconazole], the peak plasma concentrations ([1]; oral doses 200-800 mg) is given as 4 to 20 µg/mL.

With Arg-Gly-Asp-Ser (RGDS) the “ratio of positive cells in R4” value [2] was 1.68%, the “inhibition … to A549 cells” value [2] was “much more inhibition than that of Integrilin®; also recorded: significantly inhibit” and the “rescue of apoptosis of A549 cells induced by SAP 6” value (A549 cells) was “can rescue the apoptosis”. For the same molecule, the “inhibition of SAP 6 binding to human platelets” value [3] was “dose-dependent inhibition” and the “inhibition of SAP 6 binding to human platelets, compared between inhibitors” value ([3]; FIG. 4B) was “much stronger than that of Integrilin®”.

“Integrilin® (C35H49N11O9S2, molecular weight 831.96) (peptide)” showed a ratio of positive cells in R4 [4] of 2.42%.

For “SDGRG: reverse peptide with no competition for integrin binding, negative control”, the “inhibition … to A549 cells” value [2] was “significantly less inhibition” and the “inhibition … to A549 cells” value ([2]; listed as RDGRG) was “less inhibitory”.

“secreted aspartic protease 6 (SAP 6) from Candida albicans, recombinant (from UniProt P43095) (enzyme)” gave a ratio of positive cells in R4 [4] of 3.23%.

In the case of RGDS [RGDS peptide (Arg-Gly-Asp-Ser)], the ratio of positive cells in R4 [4] is reported as 1.68%.
